pIC50: −log10 of the molar value. “And” between values parts separate entries of the source, which are not always exact repeats. Equal entries are not always repeated.
These molecules were tested against RIPK1 (Homo sapiens (Human), UniProt Q13546) (assay: ADP-Glo Kinase Assay). Conditions: 5 nM RIPK1 protein, 50 μM ATP, 6 hr reaction, average value across multiple runs.
RIPK1, sequence (Q13546 1-327): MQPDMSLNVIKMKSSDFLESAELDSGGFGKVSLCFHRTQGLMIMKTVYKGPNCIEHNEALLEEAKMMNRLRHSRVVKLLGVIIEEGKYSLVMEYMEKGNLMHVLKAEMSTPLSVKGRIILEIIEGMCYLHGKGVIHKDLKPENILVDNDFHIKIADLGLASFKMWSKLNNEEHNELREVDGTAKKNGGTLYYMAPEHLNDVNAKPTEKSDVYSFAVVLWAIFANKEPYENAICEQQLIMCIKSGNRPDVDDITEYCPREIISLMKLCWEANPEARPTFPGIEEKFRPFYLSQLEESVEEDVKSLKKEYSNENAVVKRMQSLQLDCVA
Type: biochemical
Protocol: In order to measure RIPK1 activity the ADP-Glo kinase assay (Promega, Catalog #V7002) was used to measure the conversion of ATP to ADP. This enzymatic assay was performed in a 384-well white, Optiplate (Perkin Elmer, Catalog #6007299) with assay buffer consisting of 50 mM HEPES pH 7.5 (Gibco, Catalog #15630-080), 50 mM NaCl (Teknova, Catalog #S0252), 30 mM MgCl2 (Ambion, Catalog #AM9530G), 1 mM DTT (Santa Cruz Biotechnology, Catalog #sc-29089), 0.05% BSA (Sigma, Catalog #A3059-50G) and 0.02% CHAPS (Sigma, Catalog #C5070-5G). Stock solutions of the test compounds were prepared in 100% DMSO (Sigma, Catalog #D2650) and serially diluted 1:3 using 100% DMSO. Compounds were additionally diluted 1:40 in assay buffer, and 2 μL/well were transferred to the assay plate. 4 μL/well (final concentration of 5 nM) of RIPK1 protein (SignalChem, Catalog #R07-11G-05) diluted in assay buffer and added to the assay plate followed by a 10 minute preincutation at room temperature. 4 μL/well of ATP (Promega, Catalog #V7002) (final concentration of 50 μM) diluted in assay buffer were then added to the assay plate followed by a 6 hr reaction time. Final concentrations of RIPK1 and ATP refer to a 10 μL volume. Luminescence was measured using a BioTek Synergy™ NEO plate reader. IC50 values were calculated using a four-parameter logistic curve fit using Genedata Screener software. Results are shown below in Table 4, where the average value across multiple runs is given.
Molecule `Cc1nocc1NC(=O)c1nn(-c2ccccc2)c(C)cc1=O` [Example 86, 6-methyl-N-(3-methylisoxazol-4-yl)-4-oxo-1-phenyl-1,4-dihydropyridazine-3-carboxamide] has a pIC50 of 4.75. For `Cc1cc(C)c2nc(NC(=O)c3nn(-c4ccccc4)c(C)cc3=O)sc2c1` [Example 87, N-(4,6-dimethylbenzo[d]thiazol-2-yl)-6-methyl-4-oxo-1-phenyl-1,4-dihydropyridazine-3-carboxamide], the pIC50 was 4.68. `Cc1cc(=O)c(C(=O)Nc2cncc(Cl)c2)nn1-c1ccccc1` [Example 10, N-(5-chloropyridin-3-yl)-6-methyl-4-oxo-1-phenyl-1,4-dihydropyridazine-3-carboxamide] was tested, and the pIC50 was 6.41. With `Cc1cc(=O)c(C(=O)NCC2CCC2)nn1-c1ccccc1` [Example 104, N-(cyclobutylmethyl)-6-methyl-4-oxo-1-phenyl-1,4-dihydropyridazine-3-carboxamide] the pIC50 was 5.08. `Cc1cc(=O)c(C(=O)N2CCC(Oc3ccccn3)C2)nn1-c1ccccc1` (stereo not drawn) [Example 113, 6-methyl-1-phenyl-3-(3-(pyridin-2-yloxy)pyrrolidine-1-carbonyl)pyridazin-4(1H)-one] gave a pIC50 of 4.53. `Cc1ccnc(NC(=O)c2nn(-c3ccccc3)c(C)cc2=O)c1` [Example 114, 6-methyl-N-(4-methylpyridin-2-yl)-4-oxo-1-phenyl-1,4-dihydropyridazine-3-carboxamide] was tested, and the pIC50 was 5.25 and 5.12. `CN1C(=O)C(NC(=O)c2nn(-c3ccccc3)c(CCl)c(Cl)c2=O)CCc2cc(Cl)ccc21` (stereo not drawn) [Example 46, 5-chloro-N-(7-chloro-1-methyl-2-oxo-2,3,4,5-tetrahydro-1H-benzo[b]azepin-3-yl)-6-(chloromethyl)-4-oxo-1-phenyl-1,4-dihydropyridazine-3-carboxamide] gave a pIC50 of 5.84. With `COCc1cc(=O)c(C(=O)Nc2cccc(Cl)c2F)nn1-c1ccccc1` [Example 35, N-(3-chloro-2-fluorophenyl)-6-(methoxymethyl)-4-oxo-1-phenyl-1,4-dihydropyridazine-3-carboxamide] the pIC50 was 5.75. In the case of `Cc1cc(NC(=O)c2nn(-c3ccccc3)c(C)cc2=O)sn1` [Example 111, 6-methyl-N-(3-methylisothiazol-5-yl)-4-oxo-1-phenyl-1,4-dihydropyridazine-3-carboxamide], the pIC50 was 4.41. With `Cc1cc(=O)c(C(=O)Nc2cc(Cl)c3cn[nH]c3c2)nn1-c1ccccc1` [Example 18, N-(4-chloro-1H-indazol-6-yl)-6-methyl-4-oxo-1-phenyl-1,4-dihydropyridazine-3-carboxamide] the pIC50 was 5.33. Molecule `Cc1cc(=O)c(C(=O)Nc2ccccn2)nn1-c1ccccc1` [Example 106, 6-methyl-4-oxo-1-phenyl-N-(pyridin-2-yl)-1,4-dihydropyridazine-3-carboxamide] has a pIC50 of 5.75. `Cc1cc(=O)c(C(=O)Nc2c3c(nc4ccccc24)CCCC3)nn1-c1ccccc1` [Example 23, 6-methyl-4-oxo-1-phenyl-N-(1,2,3,4-tetrahydroacridin-9-yl)-1,4-dihydropyridazine-3-carboxamide] gave a pIC50 of 5.94. In the case of `Cc1n[nH]c(C)c1NC(=O)c1nn(-c2ccccc2)c(C)cc1=O` [Example 19, N-(3,5-dimethyl-1H-pyrazol-4-yl)-6-methyl-4-oxo-1-phenyl-1,4-dihydropyridazine-3-carboxamide], the pIC50 was 4.90. `Cc1cc(=O)c(C(=O)Nc2ccncc2)nn1-c1ccccc1` [Example 115, 6-methyl-4-oxo-1-phenyl-N-(pyridin-4-yl)-1,4-dihydropyridazine-3-carboxamide] was tested, and the pIC50 was 5.54 and 5.46. `Cc1cc(=O)c(C(=O)Nc2ccccn2)nn1-c1ccccc1Cl` [Example 102, 1-(2-chlorophenyl)-6-methyl-4-oxo-N-(pyridin-2-yl)-1,4-dihydropyridazine-3-carboxamide] gave a pIC50 of 5.62. For `Cc1cc(=O)c(C(=O)Nc2ccccc2F)nn1-c1ccccc1` [Example 108, N-(2-fluorophenyl)-6-methyl-4-oxo-1-phenyl-1,4-dihydropyridazine-3-carboxamide], the pIC50 was 4.54. For `Cc1cc(=O)c(C(=O)NC(C)C2CC2)nn1-c1ccccc1` (stereo not drawn) [Example 96, N-(1-cyclopropylethyl)-6-methyl-4-oxo-1-phenyl-1,4-dihydropyridazine-3-carboxamide], the pIC50 was 5.19. In the case of `Cc1ccnc(NC(=O)c2nn(-c3ccccc3F)c(C)cc2=O)c1` [Example 94, 1-(2-fluorophenyl)-6-methyl-N-(4-methylpyridin-2-yl)-4-oxo-1,4-dihydropyridazine-3-carboxamide], the pIC50 was 5.20. `Cc1ccc(-n2nc(C(=O)NC3CCc4ccccc4NC3=O)c(=O)cc2C)cc1F` (stereo not drawn) [Example 52, 1-(3-fluoro-4-methylphenyl)-6-methyl-4-oxo-N-(2-oxo-2,3,4,5-tetrahydro-1H-benzo[b]azepin-3-yl)-1,4-dihydro-pyridazine-3-carboxamide] showed a pIC50 of 7.43. `Cc1cccc(C(C)(C)C)c1NC(=O)c1nn(-c2ccccc2)c(C)cc1=O` [Example 28, N-(2-(tert-butyl)-6-methylphenyl)-6-methyl-4-oxo-1-phenyl-1,4-dihydropyridazine-3-carboxamide] showed a pIC50 of 5.57. In the case of `Cc1cc(=O)c(C(=O)Nc2nc(C(F)(F)F)c(Br)s2)nn1-c1ccccc1` [Example 84, N-(5-bromo-4-(trifluoromethyl)thiazol-2-yl)-6-methyl-4-oxo-1-phenyl-1,4-dihydropyridazine-3-carboxamide], the pIC50 was 4.48. `Cc1noc(C(C)NC(=O)c2nn(-c3ccccc3)c(C)cc2=O)n1` (stereo not drawn) [Example 105, 6-methyl-N-(1-(3-methyl-1,2,4-oxadiazol-5-yl)ethyl)-4-oxo-1-phenyl-1,4-dihydropyridazine-3-carboxamide] was tested, and the pIC50 was 4.43. `Cc1cnc2ccccc2c1NC(=O)c1nn(-c2ccccc2)c(C)cc1=O` [Example 31, 6-methyl-N-(3-methylquinolin-4-yl)-4-oxo-1-phenyl-1,4-dihydropyridazine-3-carboxamide] was tested, and the pIC50 was 6.28. Molecule `Cc1nccc(NC(=O)c2nn(-c3ccccc3)c(C)cc2=O)n1` [Example 20, 6-methyl-N-(2-methylpyrimidin-4-yl)-4-oxo-1-phenyl-1,4-dihydropyridazine-3-carboxamide] has a pIC50 of 5.35. For `Cc1cc(=O)c(C(=O)Nc2c(C(C)C)ncnc2C(C)C)nn1-c1ccccc1` [Example 34, N-(4,6-diisopropylpyrimidin-5-yl)-6-methyl-4-oxo-1-phenyl-1,4-dihydropyridazine-3-carboxamide], the pIC50 was 5.41. For `Cc1cc(=O)c(C(=O)Nc2ccc(Cl)cn2)nn1-c1ccccc1F` [Example 100, N-(5-chloropyridin-2-yl)-1-(2-fluorophenyl)-6-methyl-4-oxo-1,4-dihydropyridazine-3-carboxamide], the pIC50 was 4.36. Work on `Cc1cccc(C)c1NC(=O)c1nn(-c2ccccc2)c(C)cc1=O` [Example 22, N-(2,6-dimethylphenyl)-6-methyl-4-oxo-1-phenyl-1,4-dihydropyridazine-3-carboxamide] yielded a pIC50 of 5.82. For `COCc1cc(=O)c(C(=O)Nc2cccc(Cl)c2F)nn1C` [Example 88, N-(3-chloro-2-fluorophenyl)-6-(methoxymethyl)-1-methyl-4-oxo-1,4-dihydropyridazine-3-carboxamide], the pIC50 was 4.48. Molecule `Cc1cccc(NC(=O)c2nn(-c3ccccc3)c(C)cc2=O)n1` [Example 99, 6-methyl-N-(6-methylpyridin-2-yl)-4-oxo-1-phenyl-1,4-dihydropyridazine-3-carboxamide] has a pIC50 of 5.46. In the case of `Cc1cc(=O)c(C(=O)NC(C)(C)C)nn1-c1ccccc1` [Example 85, N-(tert-butyl)-6-methyl-4-oxo-1-phenyl-1,4-dihydropyridazine-3-carboxamide], the pIC50 was 4.41. `Cc1cc(=O)c(C(=O)Nc2c(C(C)C)nn(C)c2C(C)C)nn1-c1ccccc1` [Example 89, N-(3,5-diisopropyl-1-methyl-1H-pyrazol-4-yl)-6-methyl-4-oxo-1-phenyl-1,4-dihydropyridazine-3-carboxamide] showed a pIC50 of 4.73. With `Cc1noc(C2CC2)c1NC(=O)c1nn(-c2ccccc2)c(C)cc1=O` [Example 112, N-(5-cyclopropyl-3-methylisoxazol-4-yl)-6-methyl-4-oxo-1-phenyl-1,4-dihydropyridazine-3-carboxamide] the pIC50 was 6.10. `Cc1noc(C)c1NC(=O)c1nn(-c2ccccc2)c(C)cc1=O` [Example 16, N-(3,5-dimethylisoxazol-4-yl)-6-methyl-4-oxo-1-phenyl-1,4-dihydropyridazine-3-carboxamide] gave a pIC50 of 5.36. `Cc1cc(=O)c(C(=O)Nc2ccc3nn[nH]c3c2)nn1-c1ccccc1` [Example 13, N-(1H-benzo[d][1,2,3]triazol-6-yl)-6-methyl-4-oxo-1-phenyl-1,4-dihydropyridazine-3-carboxamide] gave a pIC50 of 5.10. `Cc1cc(=O)c(C(=O)Nc2cc(Cl)c3ncsc3c2)nn1-c1ccccc1` [Example 12, N-(4-chlorobenzo[d]thiazol-6-yl)-6-methyl-4-oxo-1-phenyl-1,4-dihydropyridazine-3-carboxamide] was tested, and the pIC50 was 5.93. `Cc1cc(NC(=O)c2nn(-c3ccccc3)c(C)cc2=O)ncn1` [Example 15, 6-methyl-N-(6-methylpyrimidin-4-yl)-4-oxo-1-phenyl-1,4-dihydropyridazine-3-carboxamide] was tested, and the pIC50 was 4.87.
